Results published in patent US8735398B2 (Bristol-Myers Squibb Company, priority 2009, dated 2014).

Each molecule was assayed on HCV 1b genotype (assay: HCV replicon assay (HCV-neo replicon cells, wild-type)). Details: HCV 1b genotype replicon; class symbol; read-out: EC50 Range against HCV 1b.
Format: cell-based, Hepatitis C virus
Procedure, shortened: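 Inhibition was tested in replicon-bearing cells, both wild-type HCV-neo and lines with NS5A resistance substitutions, using the O'Boyle et al. 2005 replicon method or luciferase-reporter formats.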

SMILES	EC50
C[C@H](NC(=O)[C@](C)(O)c1ccccc1)C(=O)Nc1ccc(-c2cnc(-c3ccc(NC(=O)[C@H](C)NC(=O)[C@](C)(O)c4ccccc4)cc3)o2)cc1 [OL-57]	4.57 to 99 nM

Same assay, conditions: Hepatitis C virus, HCV 1b genotype replicon; class symbol; read-out: EC50 Range against HCV 1b

SMILES	EC50
CO[C@H]1C[C@@H](C(=O)Nc2ccc(-c3cnc(-c4ccc(NC(=O)[C@@H]5C[C@H](OC)CN5C(=O)[C@H](O)c5ccccc5)cc4)o3)cc2)N(C(=O)[C@H](O)c2ccccc2)C1 [OL-58, (2S,4S,2′S,4′S)-N,N′-(1,3-oxazole-2,5-diyldi-4,1-phenylene)bis(1-((2R)-2-hydroxy-2-phenylacetyl)-4-methoxy-2-pyrrolidinecarboxamide)]	< 4.57 nM
O=C(Nc1ccc(-c2cc(-c3ccc(NC(=O)[C@@H]4C=CCN4C(=O)C4CCC4)cc3)[nH]n2)cc1)[C@@H]1C=CCN1C(=O)C1CCC1 [OL-38, (2S,2′S)-N,N′-(1H-pyrazole-3,5-diyldi-4,1-phenylene)bis(1-(cyclobutylcarbonyl)-2,5-dihydro-1H-pyrrole-2-carboxamide)]	1000 to 10000 nM
C[C@H](NC(=O)c1nc(Cl)cc2ccccc12)C(=O)Nc1ccc(-c2cc(-c3ccc(NC(=O)[C@H](C)NC(=O)c4nc(Cl)cc5ccccc45)cc3)[nH]n2)cc1 [OL-48, N,N′-(1H-pyrazole-3,5-diylbis(4,1-phenyleneimino((2S)-1-oxo-1,2-propanediyl)))bis(3-chloro-1-isoquinolinecarboxamide)]	100 to 999 nM
CC(C)(C)OC[C@H](NC(=O)Cc1ccccc1)C(=O)Nc1ccc(-c2cnc(-c3ccc(NC(=O)[C@H](COC(C)(C)C)NC(=O)Cc4ccccc4)cc3)o2)cc1 [JG-16, (2S,2′S)-N,N′-(1,3-oxazole-2,5-diyldi-4,1-phenylene)bis(3-tert-butoxy-2-((phenylacetyl)amino)propanamide)]	100 to 999 nM
CC1(C(=O)N2CCC[C@H]2C(=O)Nc2ccc(-c3cnc(-c4ccc(NC(=O)[C@@H]5CCCN5C(=O)C5(C)CCCN5)cc4)o3)cc2)CCCN1 (stereo partly drawn) [Example D-36, (2S,2′S)-N,N′-(1,3-oxazole-2,5-diyldi-4,1-phenylene)bis(1-((2-methyl-2-pyrrolidinyl)carbonyl)-2-pyrrolidinecarboxamide)]	1000 to 10000 nM
O=C(Nc1ccc(-c2nnc(-c3ccc(NC(=O)[C@@H]4CCCN4C(=O)[C@@H]4CCCO4)cc3)o2)cc1)[C@@H]1CCCN1C(=O)[C@@H]1CCCO1 [RK-14, (2S,2′S)-N,N′-(1,3,4-oxadiazole-2,5-diyldi-4,1-phenylene)bis(1-((2S)-tetrahydro-2-furanylcarbonyl)-2-pyrrolidinecarboxamide)]	100 to 999 nM
COc1cccc2c1C=C(Cl)N(c1ccc(-c3ncc(-c4ccc(NC(=O)[C@@H]5C[C@@H]6C[C@@H]6N5C(=O)c5nc(Cl)cc6c(OC)cccc56)cc4)o3)cc1)C2C(=O)N1[C@H](C(N)=O)C[C@@H]2C[C@@H]21 (stereo partly drawn) [CB-4, (1S,3S,5S,1′S,3′S,5′S)-N,N′-(1,3-oxazole-2,5-diyldi-4,1-phenylene)bis(2-((3-chloro-5-methoxy-1-isoquinolinyl)carbonyl)-2-azabicyclo[3.1.0]hexane-3-carboxamide)]	100 to 999 nM
CC(=O)N1CCC[C@H]1C(=O)Nc1ccc(-c2nc(-c3ccc(NC(=O)[C@@H]4CCCN4C(=O)Cc4ccccc4)cc3)cs2)cc1 [Example D-45, (2S)-1-acetyl-N-(4-(4-(4-((((2S)-1-(phenylacetyl)-2-pyrrolidinyl)carbonyl)amino)phenyl)-1,3-thiazol-2-yl)phenyl)-2-pyrrolidinecarboxamide]	100 to 999 nM
O=C(Nc1ccc(-c2ccc(-c3ccc(NC(=O)[C@@H]4CCCN4C(=O)c4nccc5ccccc45)cc3)o2)cc1)[C@@H]1CCCN1C(=O)c1nccc2ccccc12 [JG-62, (2S,2′S)-N,N′-(2,5-furandiyldi-4,1-phenylene)bis(1-(1-isoquinolinylcarbonyl)-2-pyrrolidinecarboxamide)]	100 to 999 nM
CC(=O)N1CCC[C@H]1C(=O)Nc1ccc(-c2ccc(-c3ccc(NC(=O)[C@@H]4CCCN4C(C)=O)cc3)o2)cc1 [JG-55, (2S,2′S)-N,N′-(2,5-furandiyldi-4,1-phenylene)bis(1-acetyl-2-pyrrolidinecarboxamide)]	100 to 999 nM
C[C@H](NC(=O)OCc1ccccc1)C(=O)Nc1ccc(-c2nncn2-c2ccc(NC(=O)[C@H](C)NC(=O)OCc3ccccc3)cc2)cc1 [OL-16, [(1S)-1-methyl-2-oxo-2-[[4-[3-[4-[[(2S)-1-oxo-2-[[(phenylmethoxy)carbonyl]amino]propyl]amino]phenyl]-4H-1,2,4-triazol-4-yl]phenyl]amino]ethyl]-carbamic acid, phenylmethyl ester]	1000 to 10000 nM
CC(=O)N1CCC[C@H]1C(=O)Nc1ccc(-c2sc(C)nc2-c2ccc(NC(=O)[C@@H]3CCCN3C(=O)Cc3ccccc3)cc2)cc1 [Example D-42, (2S)-1-acetyl-N-(4-(2-methyl-4-(4-((((2S)-1-(phenylacetyl)-2-pyrrolidinyl)carbonyl)amino)phenyl)-1,3-thiazol-5-yl)phenyl)-2-pyrrolidinecarboxamide]	1000 to 10000 nM
O=C(Nc1ccc(-c2cnc(-c3ccc(NC(=O)[C@@H]4CCCN4C(=O)c4cc5ccccc5o4)cc3)o2)cc1)[C@@H]1CCCN1C(=O)c1cc2ccccc2o1 [JG-28, (2S,2′S)-N,N′-(1,3-oxazole-2,5-diyldi-4,1-phenylene)bis(1-(1-benzofuran-2-ylcarbonyl)-2-pyrrolidinecarboxamide)]	100 to 999 nM

Same assay, conditions: Hepatitis C virus, HCV 1b genotype replicon; class symbols; read-out: EC50 Range against HCV 1b

SMILES	EC50
Cc1ncccc1C(=O)N1CCC[C@H]1C(=O)Nc1ccc(-c2cnc(-c3ccc(NC(=O)[C@@H]4CCCN4C(=O)c4cccnc4C)cc3)o2)cc1 [XY-30, (2S,2′S)-N,N′-(1,3-oxazole-2,5-diyldi-4,1-phenylene)bis(1-((2-methyl-3-pyridinyl)carbonyl)-2-pyrrolidinecarboxamide)]	1000 to 10000 nM
Cn1cccc1CC(=O)N1CCC[C@H]1C(=O)Nc1ccc(-c2cnc(-c3ccc(NC(=O)[C@@H]4CCCN4C(=O)Cc4cccn4C)cc3)o2)cc1 [XY-40, (2S,2′S)-N,N′-(1,3-oxazole-2,5-diyldi-4,1-phenylene)bis(1-((1-methyl-1H-pyrrol-2-yl)acetyl)-2-pyrrolidinecarboxamide)]	100 to 999 nM
O=C(Nc1ccc(-c2cnc(-c3ccc(NC(=O)[C@@H]4CCCN4C(=O)c4ccccn4)cc3)o2)cc1)[C@@H]1CCCN1C(=O)c1ccccn1 [XY-6, (2S,2′S)-N,N′-(1,3-oxazole-2,5-diyldi-4,1-phenylene)bis(1-(2-pyridinylcarbonyl)-2-pyrrolidinecarboxamide)]	1000 to 10000 nM
CCCC(C)C(=O)N1CCC[C@H]1C(=O)Nc1ccc(-c2cnc(-c3ccc(NC(=O)[C@@H]4CCCN4C(=O)C(C)CCC)cc3)o2)cc1 (stereo partly drawn) [XY-9, (2S,2′S)-N,N′-(1,3-oxazole-2,5-diyldi-4,1-phenylene)bis(1-(2-methylpentanoyl)-2-pyrrolidinecarboxamide)]	100 to 999 nM
CC(C)(C)O[C@@H]1C[C@@H](C(=O)Nc2ccc(-c3cnc(-c4ccc(NC(=O)[C@@H]5C[C@@H](OC(C)(C)C)CN5C(=O)C5CCC5)cc4)o3)cc2)N(C(=O)C2CCC2)C1 [XY-64, (2S,4R,2′S,4′R)-N,N′-(1,3-oxazole-2,5-diyldi-4,1-phenylene)bis(4-tert-butoxy-1-(cyclobutylcarbonyl)-2-pyrrolidinecarboxamide)]	1000 to 10000 nM
CC(C)(C)O[C@@H]1C[C@@H](C(=O)Nc2ccc(-c3cnc(-c4ccc(NC(=O)[C@@H]5C[C@@H](OC(C)(C)C)CN5C(=O)c5ccccc5)cc4)o3)cc2)N(C(=O)c2ccccc2)C1 [XY-73, (2S,4R,2′S,4′R)-N,N′-(1,3-oxazole-2,5-diyldi-4,1-phenylene)bis(1-benzoyl-4-tert-butoxy-2-pyrrolidinecarboxamide)]	1000 to 10000 nM

Same assay, conditions: Hepatitis C virus, HCV 1b genotype replicon; read-out: EC50 1b

SMILES	EC50
O=C(Nc1ccc(-c2cc(-c3ccc(NC(=O)[C@@H]4C=CCN4C(=O)C4CCC4)cc3)[nH]n2)cc1)[C@@H]1C=CCN1C(=O)C1CCC1 [OL-38, (2S,2′S)-N,N′-(1H-pyrazole-3,5-diyldi-4,1-phenylene)bis(1-(cyclobutylcarbonyl)-2,5-dihydro-1H-pyrrole-2-carboxamide)]	10000 nM
C[C@H](NC(=O)c1nc(Cl)cc2ccccc12)C(=O)Nc1ccc(-c2cc(-c3ccc(NC(=O)[C@H](C)NC(=O)c4nc(Cl)cc5ccccc45)cc3)[nH]n2)cc1 [OL-48, N,N′-(1H-pyrazole-3,5-diylbis(4,1-phenyleneimino((2S)-1-oxo-1,2-propanediyl)))bis(3-chloro-1-isoquinolinecarboxamide)]	280 nM
